Data: US8957087B2, “Heterocyclic substituted acardite derivate and application thereof” (Jiangsu Provincial Institute of Materia Medica Co., Ltd., priority 2009, dated 2015)
Where two headings read alike, the source gives them in different places. Marks after values point to notes of the source that are not given here.

Tests used:
mice S180 sarcoma = assay: Experimental therapeutic action on S180 sarcoma mice; details: for Tumor growth inhibition rate (%): mice S180 sarcoma, 60 mg/kg orally for 9 days
[1] = tested on: human umbilical vein endothelial cell HUVEC; assay: Lumen formation ability of HUVEC (Matrigel method); type: cell-based; details: Final concentration 1 x 1.0*10^(−5) mol/L
Outline: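 HUVEC at passage 3–5, cultured in M199 at 37° C under 5% CO2, were plated on Matrigel with compound. Spontaneous lumen formation was scored as an inhibition rate.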

[2] = tested on: Human colon cancer HT-29 transplantable tumor; assay: Human colon cancer HT-29 transplantable tumor in nude mice; details: for Relative tumor reproduction rate T/C (%): HT-29 in nude mice
[3] = tested on: renal carcinoma cell line GCR-1 transplanted tumor; type: in vivo, BALB/cA nude mice; details: BALB/cA nude mice; 60 mg/kg, 6 times every week for 3 weeks; Sorafenib oral 60 mg/kg
Outline: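 Female BALB/cA nude mice (18–22 g) bearing GCR-1 renal carcinoma xenografts, 6 per treated group, 12 saline controls. Drug given at 60 mg/kg, 6 times weekly for 3 weeks, then one week of observation; tumor inhibition rate reported.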

Raf-1(truncated) = assay: Raf-1 inhibitor screening by chemoluminescence method; type: biochemical; details: Final concentration 1 x 1.0*10^−5 mol/ml
Source text: 1. Inhibitory activity of the compound of the present invention on raf kinase
Raf-1 inhibitor screening by chemoluminescence method
Westernblot electrophoresis apparatus Rotaryshaker
Raf-1(truncated), Magnesium/ATP Cocktail, MEK1 unactive

[4] = tested on: human lung cancer cell strain A549; assay: MTT assay, inhibition of growth of human lung cancer cell strain A549; type: cell-based
Outline: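 A549 cells grown in F12 with 10% FBS; growth read by MTT, inhibition rate from blank-corrected OD of drug wells versus control wells.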

lung cancer cell A549 = assay: Effects on the adhesive ability of lung cancer cell A549; type: cell-based, human; details: Final concentration 1 x 1.0*10^(−5) mol/L
Outline: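 A549 cells in 1640 medium with 10% FBS tested for adhesion to gelatin versus poly-lysine (PLL), with CCK8 used as read-out. Inhibition rate derived from the gelatin/PLL adhesion OD ratio of dosed cells relative to the undosed cell group.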

[5] = tested on: human lung cancer A549 transplantation tumor; type: in vivo; details: BALB/cA nude mice; 60 mg/kg, 6 times every week for 3 weeks; Sorafenib oral 60 mg/kg
Outline: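 Female BALB/cA nude mice, 35-40 days old, bearing A549 human lung cancer transplants; 6 per treatment group, 12 saline controls. Compound given at 60 mg/kg, 6 times weekly for 3 weeks, then observed one week.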

[6] = tested on: human umbilical vein endothelial cell HUVEC; assay: Growth of human umbilical vein endothelial cell HUVEC by CCK8 method; type: cell-based; details: Final concentration 1 x 1.0*10^(−5) mol/L
Outline: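 HUVEC cells were grown in 1640 medium with 10% FBS, and growth was measured by the CCK8 method. OD values of drug and control wells were corrected by subtracting the blank-well OD.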

[7] = tested on: human high-metastic lung cancer cell 95D; assay: Inhibition of human high-metastic lung cancer cell 95D migration (Boyden Chamber Transwell); type: cell-based; details: Final concentration 1 x 1.0*10^(−5) mol/L
Outline: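 Boyden Transwell migration (8 μm pores) of 95D cells, RPMI-1640 with 10% FBS versus serum-free medium; inhibition rate calculated.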

[8] = tested on: human liver cancer cell bel-7402 transplantation tumor; type: in vivo; details: BALB/cA nude mice; 60 mg/kg, 6 times every week for 3 weeks; Sorafenib oral 60 mg/kg
Outline: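 Female BALB/cA nude mice (35–40 days, 18–22 g) bearing Bel-7402 xenografts; 6 mice per treated group, 12 in saline controls. Compound dosed at 60 mg/kg, 6 times weekly for 3 weeks, followed by one week of observation; tumor inhibition rate scored against controls.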

[9] = Final concentration 1 x 1.0*10^(−5) mol/L

| Molecule | Tumor growth inhibition rate (%) (mice S180 sarcoma) | Inhibition rate, lumen formation ability of HUVEC [1] [%] | Relative tumor reproduction rate T/C (%) ([2]; 60 mg/kg ig 9 times) | Relative tumor reproduction rate T/C (%) on human renal carcinoma GCR-1 cell transplanted tumor model in nude mice [3] [%] | Inhibition rate % on raf kinase (Raf-1(truncated)) [%] | Inhibition rate, growth of human lung cancer cell A549 [4] [%] | Inhibition rate, adhesion ability of human lung cancer cell A549 (lung cancer cell A549) [%] | Relative tumor reproduction rate T/C (%) on human lung cancer A549 transplantation tumor in nude mice [5] [%] | Inhibition rate, growth of HUVEC cell [6] [%] | Inhibition rate, 95D cell strain migration [7] [%] | Relative tumor reproduction rate T/C (%) on human liver cancer cell bel-7402 transplantation tumor model in nude mice [8] [%] | Inhibition rate, growth of human lung cancer cell A549 [4, 9] [%] | other results |
| --- | --- | --- | --- | --- | --- | --- | --- | --- | --- | --- | --- | --- | --- |
| CCc1cc(NC(=O)Nc2ccc(Oc3ccnc4cc(F)c(OC)cc34)cc2)ccc1Cl [Compound 31, N-(4-chloro-3-ethylphenyl)-N′-(4-(4-(6-methoxyl-7-fluoro-quinolinyl)oxy)phenyl)urea] | 50.3 | 66.77 | 50.3 | 31.4 | 89.4 | 46.78 | 66.77 | 38.7 | 26.70 | 76.18 | 33.4 |  |  |
| CNC(=O)c1cc(Oc2ccc(NC(=O)Nc3ccc(F)c(C(F)(F)F)c3)cc2)c(C)[nH]1 [Compound 14, N-(4-fluoro-3-(trifluoromethyl)phenyl)-N′-(4-(2-(N-methylaminoformoxyl)-4-(5-methyl-pyrryl)oxy)phenyl)urea] | 18.2 | 67.53 | 40.1 | 31.1 | 41.3 |  | 67.51 | 32.2 | 17.25 | 57.57 | 36.1 | 67.25 |  |
| N-(4-chloro-3-(trifluoromethyl)phenyl)-N′-(4-(2-(N-methylaminoformoxyl)-4-(6-methoxyquinolinyl)oxy))phenyl)urea [Compound 1] | 38.5 | 72.22 |  | 30.5 | 75.0 |  | 60.22 | 38.7 | 9.20 | 80.21 | 33.7 | 50.20 | Tumor weight x ± SD (mice S180 sarcoma; 60 mg/kg ig for 9 days, day 10): 0.99 ± 0.20 g; Weight (g) Start (mice S180 sarcoma; mouse body weight at start, 60 mg/kg ig): 18.7 ± 1.9 g; Weight (g) Final (mice S180 sarcoma; mouse body weight final, 60 mg/kg ig for 9 days): 22.3 ± 1.3 g; Relative tumor reproduction rate T/C (%) ([2]; 60 mg/kg ig 9 times, 60 mg/kg): 55.42%; Weight (g) d0 ([2]; nude mouse body weight d0, 60 mg/kg): 19.5 ± 1.0 g; Weight (g) d13 ([2]; nude mouse body weight d13, 60 mg/kg ig 9 times): 20.5 ± 1.1 g; RTV ([2]; relative tumor volume, 60 mg/kg ig 9 times): 2.81 ± 1.05; TV d0 ([2]; tumor volume d0, 60 mg/kg): 128 ± 34; TV d13 ([2]; tumor volume d13, 60 mg/kg ig 9 times): 359 ± 108 |
| Nc1ccc2c(Oc3ccc(NC(=O)Nc4ccc(Cl)c(C(F)(F)F)c4)cc3)cncc2c1 [Compound 25, N-(4-chloro-3-(trifluoromethyl)phenyl)-N′-(4-(4-(7-amino-isoquinolyl)oxy)phenyl)urea] | 55.8 | 79.79 | 79.5 | 31.2 | 11.5 | 63.26 | 63.51 | 39.4 | 23.26 | 59.76 | 29.1 |  |  |
